“Also recorded” adds a separate entry of the source. Where two headings read alike, the source gives them in different places.
Experiments:
[1] = biological target: T1, human M2R (Homo sapiens, UniProt P08172); assay: GloSensor cAMP assay (Gi-mediated cAMP inhibition); format: cell-based; conditions: for IC50: agonist
T1 construct: expressed in transfected cells; host or cells: HEK-293T
T1 sequence (P08172 1-466): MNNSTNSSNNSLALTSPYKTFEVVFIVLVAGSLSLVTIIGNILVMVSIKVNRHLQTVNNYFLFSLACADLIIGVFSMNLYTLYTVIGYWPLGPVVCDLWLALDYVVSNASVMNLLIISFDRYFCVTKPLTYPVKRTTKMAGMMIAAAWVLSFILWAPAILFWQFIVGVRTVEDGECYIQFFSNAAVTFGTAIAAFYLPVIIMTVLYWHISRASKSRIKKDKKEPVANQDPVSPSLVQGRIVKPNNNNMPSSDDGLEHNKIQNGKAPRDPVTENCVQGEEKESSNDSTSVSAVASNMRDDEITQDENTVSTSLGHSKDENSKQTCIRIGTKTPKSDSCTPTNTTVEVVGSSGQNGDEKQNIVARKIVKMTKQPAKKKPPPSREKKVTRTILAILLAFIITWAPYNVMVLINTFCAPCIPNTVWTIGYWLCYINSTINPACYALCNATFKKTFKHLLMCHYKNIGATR
Experimental: To measure M2 muscarinic receptor induced (Gi-mediated) cAMP inhibition, HEK-293T cells (procured from NCCS, Pune) were co-transfected with human M2R and luciferase based cAMP biosensor (pGloSensor™-22F plasmid; Promega) using PEImax method of transfection in the ratio of 1:1. The transfected cells were incubated at 37° C. in tissue culture incubator with 5% CO2 for 14-16 hours. For GloSensor cAMP assay, after overnight incubation, media from the plate was aspirated and 100 μl of sodium luciferin solution in drug buffer (1×HBSS (pH7.4) and 20 mM HEPES) was added to the cell plates. The plates were then incubated at 37° C. in tissue culture incubator with 5% CO2 for 90 minutes. After incubation, cells were treated with 20 μl of 6× diluted standard carbamoyl choline (10000 nM to 0.01 nM) along with test compounds (in triplicates) and were incubated in a humidified tissue culture incubator at 37° C. with 5% CO2 for 10-15 minutes to get a steady state condition. Ligand incubation was followed by addition of 20 μl of 7×(70 μM) forskoline (FSK) to the plate. FSK incubation was followed by incubation at 37° C. for 10-15 minutes and measurement of luminescence per well using luminescence plate reader (BMG Labtech). The results were plotted as inhibition of FSK stimulated cAMP response (relative luminescence units) using nonlinear regression analysis by Graph-Pad prism V.

[2] = tested on: Scopolamine induced memory deficit; assay: Novel object recognition (NOR) test, scopolamine induced memory deficit; format: in vivo, mice; conditions: RG-02 10 mg/kg i.p. + scopolamine 0.5 mg/kg i.p., 7th day
Description: (§1) All animal experiments and procedures were executed in accordance with the guidelines established in the guide for the care and use of laboratory animals and were approved by the institutional animal ethics committee (IAEC) of CSIR-Central Drug Research Institute, Lucknow, India. In this study, male C57BL/6J mice (6-8 weeks old) weighing 22-25 g were used. They were housed on a 12-h light/dark cycle (lights on at 8.00 am) and food and water were provided ad libitum. Animals were acclimatized to the experimental room 30 minutes prior to the beginning of behavioral procedures. For experimental purpose, animals were randomly divided into four groups: vehicle, RG-02, scopolamine and scopolamine along with RG-02. In scopolamine along with RG-02 group, RG-02 (10 mg/kg, i.p) was injected thirty minutes prior to the scopolamine (0.5 mg/kg, i.p.) injections.
The NOR test was performed according to the protocol introduced by Ennaceur and Delacour (Ennaceur & Delacour, 1988) with slight modification.
The NOR task procedure consisted of three sessions—[…], familiarization and test session. During habituation session, the mouse was placed in an open field (Square box of 40×40×40 cm), facing the wall of the arena, and allowed to explore the entire arena for 10 minutes. Following habituation period of 10 minutes, the mouse was returned to its home cage.
Between every […] session, the whole arena was cleaned with 10% ethanol to reduce olfactory cues. […] During this session, the test animal was placed in the arena and was allowed to explore the entire arena with familiar and novel object, and its activity was also video recorded. To determine the retention of object memory, the recorded videos of test session were analyzed by independent observer who was unknown to treatment of mice to calculate the time spent in exploring both objects. Data are presented as % time of exploration of familiar or novel object, and discrimination index was calculated as per following equation: (Tn−Tf)/Tt: Discrimination Index […]

[3] = tested on: Scopolamine induced memory deficit; assay: Morris water maze (MWM) test, scopolamine induced learning deficit; format: in vivo, mice
Description: as §1
The Morris water maze (MWM) test was performed according to Morris 1984, with slight modifications. Circular pool of dimensions-100 cm diameter and 45 cm depth, which was filled up to 25 cm from bottom with white colour water. Temperature of water was adjusted to 24-25° C. Pool was divided into four quadrants and a square platform of 10×10 cm in was placed into the tank at a fixed location in the centre of one of the four imaginary quadrants. Training sessions were conducted for 3 consecutive days and on 4th day a probe trial was performed. During training session, mouse was gently placed into the water facing the edge of the pool of one of the quadrant. If the mouse was able to find the platform before the 60 sec cut-off, it was allowed to stay over the platform for 5 more seconds followed by returning to its home cage. […] Total three trials/day were run for each mouse with minimum interval of 10-15 minutes between two trials, and latency to reach the platform was calculated. On the fourth day, for the probe trial, the platform was removed and the time spent in respective quadrant was calculated.

[4] = tested on: C57BL/6 mice; assay: Locomotor activity in open field arena; format: in vivo; conditions: 10 mg/kg i.p., acute, 60 minutes following injection, vs vehicle, p<0.05
Description: as §1
Locomotor activity was tested according to the previously published protocol (Kelly et al, 1998) with slight modifications. Briefly, mice were put in the centre of a clear Plexiglas (40×40×30 cm) open-field arena and were allowed to explore the entire arena for 30 minutes. After 30 minutes of exploration, animals were injected with either RG-02 (10 mg/kg; i.p.) or 0.9% normal saline and were allowed to explore the arena for further 60 minutes. […]

[5] = biological target: T2, human M3R (Homo sapiens, UniProt P20309); assay: NFAT-luciferase assay, M3; format: cell-based
T2 construct: expressed in transfected cells; host or cells: HEK-293T
T2 sequence (P20309 whole entry): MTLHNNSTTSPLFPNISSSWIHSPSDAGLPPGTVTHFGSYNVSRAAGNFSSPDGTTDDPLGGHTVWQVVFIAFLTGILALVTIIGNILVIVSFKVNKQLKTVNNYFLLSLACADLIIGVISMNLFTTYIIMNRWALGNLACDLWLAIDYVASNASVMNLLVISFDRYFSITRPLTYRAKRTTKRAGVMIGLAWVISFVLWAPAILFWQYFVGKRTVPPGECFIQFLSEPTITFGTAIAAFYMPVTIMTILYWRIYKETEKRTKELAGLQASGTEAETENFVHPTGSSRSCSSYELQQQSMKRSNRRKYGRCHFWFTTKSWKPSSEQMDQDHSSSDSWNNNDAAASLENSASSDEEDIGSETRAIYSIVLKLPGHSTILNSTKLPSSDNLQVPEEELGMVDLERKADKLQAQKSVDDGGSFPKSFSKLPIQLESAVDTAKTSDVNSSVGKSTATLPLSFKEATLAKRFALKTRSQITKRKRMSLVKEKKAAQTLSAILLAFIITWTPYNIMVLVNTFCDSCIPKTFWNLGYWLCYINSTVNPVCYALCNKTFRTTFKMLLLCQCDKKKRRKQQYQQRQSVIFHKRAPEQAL
Experimental: (§2) To measure the agonist or antagonist activity at M1, M3 and M5 muscarinic receptor, NFAT-luciferase activity was performed in HEK-293T cells (procured from NCCS, Pune) by co-transfecting with human M1R or M3R or M5R and pGL4.30 (luc2P/NFAT-RE/Hygro; Promega Corp,) in 96 well format. The transfected cells were incubated at 37° C. in tissue culture incubator with 5% CO2 for 14-16 hours. To determine the if the test compounds are agonist, the transfected cells were treated with either 20 μl/well of carbamoyl choline (as a positive control) at various concentrations (10000 nM to 0.01 nM) or with various concentrations of test compounds (in triplicates) and were further incubated for 12 hrs in a humidified tissue culture incubator at 37° C. with 5% CO2. For antagonist mode assay, test compound incubation was followed by addition of 20 μl of 7 μM carbamoylcholine (agonist) to the plate. Following 12-14 hrs of drug treatment, media from the plate was aspirated and 100 μl of sodium luciferin solution (10 mg/ml) was added and luminescence per well was recorded using luminescence plate reader (BMG Labtech).

[6] = biological target: T3, human M5R (Homo sapiens, UniProt P08912); assay: NFAT-luciferase assay, M5; format: cell-based
T3 construct: expressed in transfected cells; host or cells: HEK-293T
T3 sequence (P08912 1-532): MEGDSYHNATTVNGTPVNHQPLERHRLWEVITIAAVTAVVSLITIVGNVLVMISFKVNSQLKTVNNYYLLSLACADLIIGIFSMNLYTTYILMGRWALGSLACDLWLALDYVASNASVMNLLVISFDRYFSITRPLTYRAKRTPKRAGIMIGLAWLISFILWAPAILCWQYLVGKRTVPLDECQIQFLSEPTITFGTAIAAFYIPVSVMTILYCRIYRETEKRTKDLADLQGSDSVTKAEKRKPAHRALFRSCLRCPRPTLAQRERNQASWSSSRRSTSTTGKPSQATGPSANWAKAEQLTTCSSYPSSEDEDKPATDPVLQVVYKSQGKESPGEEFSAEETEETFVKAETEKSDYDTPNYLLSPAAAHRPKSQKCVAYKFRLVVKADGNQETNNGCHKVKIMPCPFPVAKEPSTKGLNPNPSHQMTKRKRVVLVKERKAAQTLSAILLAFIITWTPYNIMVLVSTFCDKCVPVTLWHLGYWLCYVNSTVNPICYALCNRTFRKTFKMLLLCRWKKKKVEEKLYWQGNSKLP
Experimental: as §2

[7] = biological target: T4, human M1R (Homo sapiens, UniProt P11229); assay: NFAT-luciferase assay, M1; format: cell-based
T4 construct: expressed in transfected cells; host or cells: HEK-293T
T4 sequence (P11229 1-460): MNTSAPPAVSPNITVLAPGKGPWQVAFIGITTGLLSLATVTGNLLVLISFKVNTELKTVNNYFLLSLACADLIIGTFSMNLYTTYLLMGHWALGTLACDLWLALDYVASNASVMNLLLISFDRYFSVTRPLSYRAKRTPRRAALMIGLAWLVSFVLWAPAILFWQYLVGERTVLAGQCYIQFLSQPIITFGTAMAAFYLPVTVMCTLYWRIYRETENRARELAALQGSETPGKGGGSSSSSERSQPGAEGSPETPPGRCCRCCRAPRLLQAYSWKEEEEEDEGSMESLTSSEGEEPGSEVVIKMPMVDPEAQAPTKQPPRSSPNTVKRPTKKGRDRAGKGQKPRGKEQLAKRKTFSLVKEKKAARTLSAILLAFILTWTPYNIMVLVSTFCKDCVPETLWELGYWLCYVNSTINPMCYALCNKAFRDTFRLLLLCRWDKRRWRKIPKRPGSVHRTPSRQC
Experimental: as §2

Row | Structure (SMILES) | agonist activity at M2 receptor (in words) [1] | IC50 ([1]; M2, N.A. = not active, read-out: pIC50/pEC50 (Mean ± SEM) M2 (converted)) | IC50 ([1]; read-out: IC50 at M2 receptor) | percent time exploration for novel object ([2]; vs scopolamine alone / vehicle) | novel object discrimination index ([2]; vs scopolamine alone, p<0.05) | time spent in platform quadrant (probe trial) ([3]; RG-02 10 mg/kg i.p. + scopolamine 0.5 mg/kg i.p., day 4, vs scopolamine alone) | learning the location of hidden platform ([3]; RG-02 alone 10 mg/kg i.p., vs vehicle) | locomotor activity (total horizontal distance travelled) [4] | antagonist activity at M3 receptor (in words) [5] | selectivity among muscarinic receptors (in words) ([5]; M1, M3 and M5 antagonist profiling) | antagonist activity at M5 receptor (in words) [6] | IC50 ([6]; M5, antagonist, N.A. = not active, read-out: pIC50/pEC50 (Mean ± SEM) M5 (converted)) | antagonist activity at M1 receptor (in words) [7] | IC50 ([7]; M1, antagonist, N.A. = not active, read-out: pIC50/pEC50 (Mean ± SEM) M1 (converted))
1 | O=C1CCC[C@@H]2[C@@H]1C[C@@]1(S(=O)(=O)c3ccccc3)C(=O)[C@@H]3c4ccccc4[C@H]1N32 [RG-02, (4aS,6S,6aR,11S,12aR)-6-(phenylsulfonyl)-1,2,3,4a,5,6,6a,12a-octahydro-6,11-methanoisoindolo[2,1-a]quinoline-4,13(11H)-dione] | most potent agonist at M2 receptor; also recorded: selective M2 muscarinic receptor agonist with high activity | 4.17 nM | 4 nM | significantly increased | significantly blocked the negative effect of scopolamine on novel object discrimination; also recorded: significantly increased | increased the time spent in the quadrant with platform; also recorded: significantly increased | no per se effect | significantly increased locomotor activity; also recorded: neurostimulatory effect; also recorded: significant increase in locomotor activity |  |  |  |  |  | 
2 | O=C1[C@@H]2c3ccccc3[C@H]3N2[C@@H]2CCCC(OS(=O)(=O)C(F)(F)F)=C2C[C@@]13S(=O)(=O)c1ccccc1 [RG-12, (6S,6aR,11S,12aR)-13-oxo-6-(phenylsulfonyl)-1,2,3,5,6,6a,11,12a-octahydro-6,11-methanoisoindolo[2,1-a]quinolin-4-yl trifluoromethanesulfonate] |  |  |  |  |  |  |  |  | very modest activity | nonselective muscarinic receptor antagonist | very modest activity | 269 nM | very modest activity | 129 nM

Reference: patent publication US11065235B2, “Substituted methanopyrido [2, 1-a] isoindolones as mAChR modulators for treating various associated pathophysiological conditions and process for preparation thereof” (COUNCIL OF SCIENTIFIC & INDUSTRIAL RESEARCH, priority 2017, dated 2021)
